These results are taken from BindingDB's records for doi:10.3109/14756366.2012.729827 (National University of Mexico City, 2013).

The target in this experiment is T1, 3-oxo-5-alpha-steroid 4-dehydrogenase 2 (Homo sapiens, UniProt P31213).
T1 sequence (P31213 whole entry): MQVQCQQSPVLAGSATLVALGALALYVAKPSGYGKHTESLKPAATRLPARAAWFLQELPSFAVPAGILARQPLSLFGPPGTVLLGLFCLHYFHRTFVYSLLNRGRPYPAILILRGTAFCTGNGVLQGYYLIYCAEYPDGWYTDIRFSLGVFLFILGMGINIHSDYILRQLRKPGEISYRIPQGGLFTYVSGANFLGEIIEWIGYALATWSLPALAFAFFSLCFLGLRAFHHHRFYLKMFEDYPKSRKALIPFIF
Put plainly: 5α-R2 Activity Assay. As for the experimental part:
The activity of the isozyme 5α-R type 2 was assayed as previously described [Hirosumi et al., J. Steroid Biochem. Mol. Biol., 52:357-363; Bratoeff et al., J. Steroid Biochem. Mol. Biol., 107:48-56].

Regarding `C[C@]12CC[C@H](OC(=O)c3ccccc3)CC1=CCC1C2CC[C@]2(C)C(=O)CCC12` (stereo partly drawn) [17-Oxaandrost-5-ene-3β-yl-benzoate (1)], the IC50 (as a rule, the concentration that gives 50% inhibition) was above 100000 nM.
The figure for `C[C@]12CC[C@H](OC(=O)c3ccc(F)cc3)CC1=CCC1C2CC[C@]2(C)C(=O)CCC12` (stereo partly drawn) [17-Oxaandrost-5-ene-3β-yl-p-fluorobenzoate (2)] is 3.58 nM.
